Measured values reported in patent publication US20240156778A1, “THIOPHENE DERIVATIVES FOR USE IN TREATING PORTAL INFLAMMATION AND FIBROSIS” (ENYO PHARMA, priority 2019, published 2024).

What was measured:
NASH mouse model [1] = assay: Periportal inflammation score in the AMLN-diet NASH mouse model (H&E inflammatory foci); assay type: in vivo, male C57BL/6JRj mice; conditions: 8 weeks oral dosing after high-fat (AMLN) diet; Compound #157 7 or 20 mg/kg twice daily; OCA 30 mg/kg once daily; FIG. 1
Method: (§1) Mice were fed with a high-fat diet for 30 weeks and then treated by oral administration, twice daily with either compound #157 or once daily with OCA for 8 weeks. Effects on portal/periportal inflammation and fibrosis and on lobular inflammation were determined before treatment and upon study completion.
(§2) Five week old, male C57BL/6JRj mice were fed either chow diet (Altromin 1324, Brogaarden, Denmark) or AMLN diet (40% total fat kcal of which 18.5% were trans-fat kcal, 20% fructose, 2% cholesterol; Research Diets #D09100301). This diet was maintained for 29 weeks prior to study initiation.
Three weeks prior to study initiation, liver biopsies were taken and animals with steatosis grade <2 and fibrosis stage <1 were deselected from the study. Prior to first administration of test article, stratified randomization of mice into treatment groups was performed according to collagen 1a1 (IHC) morphometry from the week -3 biopsies. […]
(§3) At termination, right medial and/or left lateral lobes of the liver (>50% of each lobe harvested) were excised and fixed in 10% neutral-buffered formalin (at least 7 days at room temperature). […] NAFLD and NASH were scored by use of criteria outlined by Kleiner et al. Hepatology 41, p. […]
Inflammation was evaluated by counting the number of hematoxylin and eosin (H&E) positive inflammatory foci per field using a 200× magnification (min. 5 fields per animal). […]

NASH mouse model [2] = assay: Periportal fibrosis (% fractional area, Picro Sirius Red) in the AMLN-diet NASH mouse model; assay type: in vivo, male C57BL/6JRj mice; conditions: 8 weeks oral dosing after high-fat (AMLN) diet; Compound #157 7 or 20 mg/kg twice daily; FIG. 2
Method: as §1, §2
Three weeks prior to study initiation, liver biopsies were taken and animals with steatosis grade <2 and fibrosis stage <1 were deselected from the study. […]
as §3
Portal fibrosis was quantified using Visiopharm Histopathology Image Analysis software (Visioparm, Hørsholm, Denmark). […] Periportal fibrosis was then detected in the periportal zone using the linear Bayesian method and reported as an area fraction.

SMILES	Effect on portal/periportal inflammation (NASH mouse model [1])	Effect on portal/periportal fibrosis (NASH mouse model [2])
CC[C@H]1[C@@H](O)[C@@H]2[C@H](CC[C@]3(C)[C@@H]([C@H](C)CCC(=O)O)CC[C@@H]23)[C@@]2(C)CC[C@@H](O)C[C@@H]12 [OCA, Obeticholic acid, reference compound]	no effect	
O=C(Nc1scc(C2CCc3ccccc3C2)c1C(=O)O)c1ccccc1 (stereo not drawn) [Compound #157]	resolves	resolves
